In PubChem BioAssay AID248 (DTP/NCI, 2004):
Where “and” joins values, the source holds several entries; their conditions need not be identical. Equal entries are not always repeated. Toxic doses and inconclusive results are not listed. Rule as the data show it: active = T/C of 150% or more; inactive = T/C below 125%.

Test system: L1210 leukemia ip in BDF1 mice, survival T/C
Experiment: NCI In Vivo Anticancer Drug Screen. Data for tumor model L1210 Leukemia (intraperitoneal) in B6D2F1 (BDF1) mice
Conditions: endpoint: mean survival time, higher = longer survival
Procedure, shortened: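 Tumor was transplanted into mice, which were then dosed with test compound or vehicle alone. Survival was recorded for each group, and the treated figure was expressed relative to the control figure.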

[1] = dose: 50.0 mg/kg/injection, schedule: Q01DX009 (ip), vehicle: saline
[2] = dose: 100.0 mg/kg/injection, schedule: Q01DX009 (ip), vehicle: saline
[3] = dose: 200.0 mg/kg/injection, schedule: Q01DX009 (ip), vehicle: saline
[4] = dose: 100.0 mg/kg/injection, schedule: Q04DX003 (ip), vehicle: saline with Tween-80
[5] = dose: 200.0 mg/kg/injection, schedule: Q04DX003 (ip), vehicle: saline with Tween-80
[6] = dose: 100.0 mg/kg/injection, schedule: Q04DX002 (ip), vehicle: Klucel (hydroxypropylcellulose) (HPC)
[7] = dose: 200.0 mg/kg/injection, schedule: Q04DX002 (ip), vehicle: Klucel (hydroxypropylcellulose) (HPC)
[8] = dose: 400.0 mg/kg/injection, schedule: Q04DX002 (ip), vehicle: Klucel (hydroxypropylcellulose) (HPC)
[9] = dose: 100.0 mg/kg/injection, schedule: Q01DX001 (ip), vehicle: saline
[10] = dose: 200.0 mg/kg/injection, schedule: Q01DX001 (ip), vehicle: saline
[11] = dose: 400.0 mg/kg/injection, schedule: Q01DX001 (ip), vehicle: saline
[12] = dose: 400.0 mg/kg/injection, schedule: Q04DX002 (ip), vehicle: saline with Tween-80
[13] = dose: 50.0 mg/kg/injection, schedule: Q01DX001 (ip), vehicle: Klucel (hydroxypropylcellulose) (HPC)
[14] = dose: 100.0 mg/kg/injection, schedule: Q01DX001 (ip), vehicle: Klucel (hydroxypropylcellulose) (HPC)
[15] = dose: 400.0 mg/kg/injection, schedule: Q04DX003 (ip), vehicle: saline with Tween-80

Measured: T/C

CC1CC(C)(C)OC(C(Cl)(Cl)Cl)O1 (centres undefined)
inactive: [1] 98 % of control | [2] 93 % of control | dose: 100.0 mg/kg/injection, schedule: Q04DX003 (ip), vehicle: acetone 112 % of control | [3] 93 % of control | dose: 200.0 mg/kg/injection, schedule: Q04DX003 (ip), vehicle: acetone 106 % of control | dose: 400.0 mg/kg/injection, schedule: Q04DX003 (ip), vehicle: acetone 103 % of control

C/C(=C\Cl)COC(C)(C)C
inactive: dose: 100.0 mg/kg/injection, schedule: Q01DX001 (ip), vehicle: saline with Tween-80 94 % of control | dose: 200.0 mg/kg/injection, schedule: Q01DX001 (ip), vehicle: saline with Tween-80 94 % of control

CCOC(=O)C(=CN(C(C)C)C(C)C)C(=O)OCC
inactive: [1] 100 % of control | [2] 98 % of control | [4] 94 % of control | [3] 101 % of control | [5] 100 % of control

O=C1Nc2ccc(Br)cc2C1=Nc1ccc2c(c1)OCO2
inactive: [6] 100 % of control | [7] 95 % of control | [8] 100 % of control

CNc1ccccc1C(=O)N/N=C/c1ccc(O)c(OC)c1
inactive: [6] 99 % of control | [7] 93 % of control | [8] 96 % of control

COCc1ccc(N2C(N)=NC(N)=NC2(C)C)cc1
inactive: dose: 100.0 mg/kg/injection, schedule: Q04DX003 (ip), vehicle: saline 95 % of control

Brc1ccc(SSc2ccc(Br)cc2)cc1
inactive: [9] 110 % of control | [10] 95 % of control | [11] 95 % of control

CN1CCCC1c1cccc([N+](=O)[O-])c1 (centres undefined)
inactive: dose: 100.0 mg/kg/injection, schedule: Q01DX001 (ip), vehicle: acetone 93 % of control

NC(=O)c1ncn(C2CC(CO)C(O)C2O)c1N (centres undefined)
inactive: [9] 100 % of control | [10] 110 % of control | [11] 104 % of control

CSc1ccc(NC(=O)c2ccc(Cl)cc2)cc1
inactive: dose: 100.0 mg/kg/injection, schedule: Q04DX002 (ip), vehicle: saline with Tween-80 100 % of control | dose: 200.0 mg/kg/injection, schedule: Q04DX002 (ip), vehicle: saline with Tween-80 100 % of control | [12] 92 % of control

Cc1cccc2c1NC(c1ccccc1)C(C)S2(=O)=O (centres undefined)
inactive: [13] 106 % of control | [14] 96 % of control | dose: 200.0 mg/kg/injection, schedule: Q01DX001 (ip), vehicle: Klucel (hydroxypropylcellulose) (HPC) 102 % of control | dose: 400.0 mg/kg/injection, schedule: Q01DX001 (ip), vehicle: Klucel (hydroxypropylcellulose) (HPC) 96 % of control

CCCCCCCCCCCn1cnc2c(N)ncnc21
inactive: dose: 12.5 mg/kg/injection, schedule: Q01DX005 (ip), vehicle: other 93 % of control | dose: 25.0 mg/kg/injection, schedule: Q01DX005 (ip), vehicle: other 103 % of control | dose: 50.0 mg/kg/injection, schedule: Q01DX005 (ip), vehicle: other 92 % of control | dose: 100.0 mg/kg/injection, schedule: Q01DX005 (ip), vehicle: other 103 % of control | dose: 200.0 mg/kg/injection, schedule: Q01DX005 (ip), vehicle: other 104 % of control

C=CC[N+](CC=C)(CC=C)CC[N+](CC=C)(CC=C)CC=C
inactive: dose: 6.25 mg/kg/injection, schedule: Q01DX009 (ip), vehicle: water 109 % of control | dose: 12.5 mg/kg/injection, schedule: Q01DX009 (ip), vehicle: water 111 % of control | dose: 25.0 mg/kg/injection, schedule: Q01DX009 (ip), vehicle: water 96 % of control and 90 % of control | dose: 50.0 mg/kg/injection, schedule: Q01DX009 (ip), vehicle: water 106 % of control and 87 % of control and 89 % of control | dose: 100.0 mg/kg/injection, schedule: Q01DX009 (ip), vehicle: water 100 % of control

[B-][N+](C)(C)C
inactive: dose: 3.13 mg/kg/injection, schedule: Q01DX001 (ip), vehicle: Klucel (hydroxypropylcellulose) (HPC) 99 % of control | dose: 6.25 mg/kg/injection, schedule: Q01DX001 (ip), vehicle: Klucel (hydroxypropylcellulose) (HPC) 101 % of control | dose: 12.5 mg/kg/injection, schedule: Q01DX001 (ip), vehicle: Klucel (hydroxypropylcellulose) (HPC) 99 % of control | dose: 25.0 mg/kg/injection, schedule: Q01DX001 (ip), vehicle: Klucel (hydroxypropylcellulose) (HPC) 106 % of control | [13] 109 % of control | [14] 103 % of control

CC(=O)C(C(=O)NCc1ccccc1)C(c1cccc([N+](=O)[O-])c1)C(C(C)=O)C(=O)NCc1ccccc1 (centres undefined)
inactive: dose: 25.6 mg/kg/injection, schedule: Q04DX002 (ip), vehicle: saline with Tween-80 95 % of control | dose: 64.0 mg/kg/injection, schedule: Q04DX002 (ip), vehicle: saline with Tween-80 95 % of control | dose: 160.0 mg/kg/injection, schedule: Q04DX002 (ip), vehicle: saline with Tween-80 95 % of control | [5] 87 % of control | [12] 95 % of control | [15] 87 % of control

CCCCCCCOc1ccc(C2=C(c3ccccc3)C(=O)C(c3ccccc3)=C2c2ccccc2)cc1
inactive: dose: 100.0 mg/kg/injection, schedule: Q01DX001 (ip), vehicle: carboxymethylcellulose (CMC) 100 % of control | dose: 200.0 mg/kg/injection, schedule: Q01DX001 (ip), vehicle: carboxymethylcellulose (CMC) 100 % of control | dose: 400.0 mg/kg/injection, schedule: Q01DX001 (ip), vehicle: carboxymethylcellulose (CMC) 94 % of control

CC1CC=C(C(=O)O)CC1 (centres undefined)
inactive: dose: 50.0 mg/kg/injection, schedule: Q01DX001 (ip), vehicle: other 90 % of control | dose: 100.0 mg/kg/injection, schedule: Q01DX001 (ip), vehicle: other 95 % of control | dose: 200.0 mg/kg/injection, schedule: Q01DX001 (ip), vehicle: other 93 % of control | dose: 400.0 mg/kg/injection, schedule: Q01DX001 (ip), vehicle: other 95 % of control

CC(C)(C#N)C(C)(C)C#N
inactive: dose: 1.56 mg/kg/injection, schedule: Q04DX003 (ip), vehicle: saline with Tween-80 103 % of control | dose: 3.13 mg/kg/injection, schedule: Q04DX003 (ip), vehicle: saline with Tween-80 92 % of control | dose: 6.25 mg/kg/injection, schedule: Q04DX003 (ip), vehicle: saline with Tween-80 93 % of control and 92 % of control

CC(C)C(=O)/C=C/c1ccc(Cl)cc1
inactive: dose: 100.0 mg/kg/injection, schedule: Q04DX002 (ip), vehicle: gum acacia 95 % of control | dose: 200.0 mg/kg/injection, schedule: Q04DX002 (ip), vehicle: gum acacia 92 % of control | dose: 400.0 mg/kg/injection, schedule: Q04DX002 (ip), vehicle: gum acacia 92 % of control

CNC(=S)N/N=C(\C=N\NC(=S)NC)c1ccccc1
inactive: dose: 50.0 micrograms/kg/injection, schedule: Q01DX009 (ip), vehicle: carboxymethylcellulose (CMC) 88 % of control

CCCCCCCC(O)CCC(=O)NN (centres undefined)
inactive: dose: 25.0 mg/kg/injection, schedule: Q01DX009 (ip), vehicle: saline with Tween-80 98 % of control | dose: 50.0 mg/kg/injection, schedule: Q01DX009 (ip), vehicle: saline with Tween-80 102 % of control | dose: 100.0 mg/kg/injection, schedule: Q01DX009 (ip), vehicle: saline with Tween-80 106 % of control

CCCCCCCCCCCCC(=O)N1CCOCC1
inactive: [4] 122 % of control | [5] 107 % of control | [15] 104 % of control

CCC12CCC(Br)C(C1)OC2=O (centres undefined)
inactive: [4] 98 % of control | [5] 91 % of control | [15] 93 % of control
